In PubChem BioAssay AID200 (DTP/NCI, 2004):
Values joined by “and” are separate entries in the source; they are usually repeats but may differ in a detail not shown here. Equal entries are not always repeated. Inconclusive results and toxic doses are left out.

Test system: B6C3F1 mice, B16 melanoma ip, median survival T/C
Test: NCI In Vivo Anticancer Drug Screen. Data for tumor model B16 Melanoma (intraperitoneal) in B6C3F1 mice
Conditions: endpoint: median survival time, higher = longer survival
Procedure: The antitumor activity of compounds was measured in mice bearing transplantable tumors. Survival or tumor size were measured and the results are expressed as the measurement made in the treated group (T) divided by the measurement made in the vehicle treated control group (C). The tumor model used in this assay is B16 Melanoma (intraperitoneal) in B6C3F1 mice

[1] = dose: 50.0 mg/kg/injection, schedule: Q01DX009 (ip), vehicle: Klucel (hydroxypropylcellulose) (HPC)
[2] = dose: 100.0 mg/kg/injection, schedule: Q01DX009 (ip), vehicle: Klucel (hydroxypropylcellulose) (HPC)
[3] = dose: 25.0 mg/kg/injection, schedule: Q01DX009 (ip), vehicle: saline with Tween-80
[4] = dose: 50.0 mg/kg/injection, schedule: Q01DX009 (ip), vehicle: saline with Tween-80
[5] = dose: 100.0 mg/kg/injection, schedule: Q01DX009 (ip), vehicle: saline with Tween-80
[6] = dose: 100.0 mg/kg/injection, schedule: Q01DX009 (ip), vehicle: saline
[7] = dose: 200.0 mg/kg/injection, schedule: Q01DX009 (ip), vehicle: saline

With O=C1NC(O)CCN1C1OC(CO)C(O)C1O (stereo not drawn) the T/C (dose: 25.0 mg/kg/injection, schedule: Q01DX008 (ip), vehicle: saline) was 104 % of control, the T/C (dose: 50.0 mg/kg/injection, schedule: Q01DX008 (ip), vehicle: saline) was 99 % of control and the T/C (dose: 100.0 mg/kg/injection, schedule: Q01DX008 (ip), vehicle: saline) was 104 % of control. The T/C (dose: 200.0 mg/kg/injection, schedule: Q01DX008 (ip), vehicle: saline) was 108 % of control, the T/C (dose: 400.0 mg/kg/injection, schedule: Q01DX008 (ip), vehicle: saline) was 108 % of control and the T/C (dose: 800.0 mg/kg/injection, schedule: Q01DX008 (ip), vehicle: saline) was 96 % of control.

For CNCCN=c1ccc2c3c1c(O)c1c(O)ccc(=O)c1c3[nH]n2CCNCCO, the T/C (dose: 0.38 mg/kg/injection, schedule: Q01DX009 (ip), vehicle: water) was 273 % of control, the T/C (dose: 0.75 mg/kg/injection, schedule: Q01DX009 (ip), vehicle: water) was 357 % of control and the T/C (dose: 1.5 mg/kg/injection, schedule: Q01DX009 (ip), vehicle: water) was 357 % of control. For the same compound, the T/C (dose: 3.0 mg/kg/injection, schedule: Q01DX009 (ip), vehicle: water) was 309 % of control and the T/C (dose: 3.12 mg/kg/injection, schedule: Q01DX009 (ip), vehicle: water) was 169 % of control.

With C=C1C(=O)OC2/C=C(\C)CC(O)/C=C(/CO)CC(OC(=O)/C(C)=C/C)C12 (stereo not drawn) the T/C (dose: 7.5 mg/kg/injection, schedule: Q01DX009 (ip), vehicle: saline + alcohol) was 115 % of control, the T/C (dose: 7.5 mg/kg/injection, schedule: Q01DX009 (ip), vehicle: saline with Tween-80) was 102 % of control and the T/C (dose: 15.0 mg/kg/injection, schedule: Q01DX009 (ip), vehicle: saline + alcohol) was 123 % of control. For the same compound, the T/C (dose: 15.0 mg/kg/injection, schedule: Q01DX009 (ip), vehicle: saline with Tween-80) was 103 % of control, the T/C (dose: 15.0 mg/kg/injection, schedule: Q01DX009 (ip), vehicle: saline) was 98 % of control and the T/C (dose: 30.0 mg/kg/injection, schedule: Q01DX009 (ip), vehicle: saline with Tween-80) was 97 % of control. The T/C (dose: 30.0 mg/kg/injection, schedule: Q01DX009 (ip), vehicle: saline) was 116 % of control, the T/C (dose: 60.0 mg/kg/injection, schedule: Q01DX009 (ip), vehicle: saline + alcohol) was 155 % of control and the T/C (dose: 60.0 mg/kg/injection, schedule: Q01DX009 (ip), vehicle: saline with Tween-80) was 98 % of control. The T/C (dose: 60.0 mg/kg/injection, schedule: Q01DX009 (ip), vehicle: saline) was 120 % of control.

In the case of CSCCC(NC(=O)CNC(=O)OCc1ccccc1)C(=O)O (stereo not drawn), the T/C (dose: 3.0 mg/kg/injection, schedule: Q01DX009 (ip), vehicle: Klucel (hydroxypropylcellulose) (HPC)) is reported as 101 % of control and 103 % of control, the T/C (dose: 6.0 mg/kg/injection, schedule: Q01DX009 (ip), vehicle: Klucel (hydroxypropylcellulose) (HPC)) is reported as 95 % of control and the T/C (dose: 6.25 mg/kg/injection, schedule: Q01DX009 (ip), vehicle: Klucel (hydroxypropylcellulose) (HPC)) is reported as 93 % of control. For the same compound, the T/C (dose: 12.0 mg/kg/injection, schedule: Q01DX009 (ip), vehicle: Klucel (hydroxypropylcellulose) (HPC)) was 101 % of control and 103 % of control, the T/C (dose: 12.5 mg/kg/injection, schedule: Q01DX009 (ip), vehicle: Klucel (hydroxypropylcellulose) (HPC)) was 97 % of control and the T/C (dose: 25.0 mg/kg/injection, schedule: Q01DX009 (ip), vehicle: Klucel (hydroxypropylcellulose) (HPC)) was 93 % of control and 94 % of control. For the same compound, the T/C [1] was 95 % of control and 99 % of control and 102 % of control, the T/C [2] was 95 % of control and the T/C (dose: 200.0 mg/kg/injection, schedule: Q01DX009 (ip), vehicle: Klucel (hydroxypropylcellulose) (HPC)) was 101 % of control. The T/C (dose: 400.0 mg/kg/injection, schedule: Q01DX009 (ip), vehicle: Klucel (hydroxypropylcellulose) (HPC)) was 95 % of control.

For CC1CN1P1(N2CC2C)=NP(N2CC2C)(N2CC2C)=NP(N2CC2C)(N2CC2C)=N1 (stereo not drawn), the T/C (dose: 1.0 mg/kg/injection, schedule: Q01DX009 (ip), vehicle: saline) was 98 % of control, the T/C (dose: 1.0 mg/kg/injection, schedule: Q02DX009 (ip), vehicle: saline) was 96 % of control and the T/C (dose: 2.0 mg/kg/injection, schedule: Q01DX009 (ip), vehicle: saline) was 100 % of control. For the same compound, the T/C (dose: 2.0 mg/kg/injection, schedule: Q02DX009 (ip), vehicle: saline) was 102 % of control, the T/C (dose: 4.0 mg/kg/injection, schedule: Q01DX009 (ip), vehicle: saline) was 106 % of control and the T/C (dose: 4.0 mg/kg/injection, schedule: Q02DX009 (ip), vehicle: saline) was 101 % of control. The T/C (dose: 8.0 mg/kg/injection, schedule: Q01DX009 (ip), vehicle: saline) was 115 % of control, the T/C (dose: 8.0 mg/kg/injection, schedule: Q02DX009 (ip), vehicle: saline) was 105 % of control and the T/C (dose: 16.0 mg/kg/injection, schedule: Q01DX009 (ip), vehicle: saline) was 117 % of control. For the same compound, the T/C (dose: 32.0 mg/kg/injection, schedule: Q02DX009 (ip), vehicle: saline) was 122 % of control, the T/C (dose: 64.0 mg/kg/injection, schedule: Q01DX009 (ip), vehicle: saline) was 118 % of control and the T/C (dose: 64.0 mg/kg/injection, schedule: Q02DX009 (ip), vehicle: saline) was 94 % of control.

NC(CSC(c1ccccc1)(c1ccccc1)c1ccccc1)C(=O)O (stereo not drawn) was tested, and the T/C (dose: 4.0 mg/kg/injection, schedule: Q01DX009 (ip), vehicle: Klucel (hydroxypropylcellulose) (HPC)) was 120 % of control and the T/C (dose: 16.0 mg/kg/injection, schedule: Q01DX009 (ip), vehicle: Klucel (hydroxypropylcellulose) (HPC)) was 124 % of control.

In the case of COC(=O)Nc1cn2ccc(Sc3ccccc3)cc2n1, the T/C [1] is reported as 122 % of control and the T/C [2] is reported as 101 % of control.

CN=C(N)N/N=C(\C)c1ccc2c(c1)Cc1ccccc1-2 was tested, and the T/C (dose: 12.5 mg/kg/injection, schedule: Q01DX009 (ip), vehicle: saline with Tween-80) was 111 % of control, the T/C [3] was 118 % of control and the T/C [4] was 119 % of control. For the same compound, the T/C [5] was 122 % of control.

For CCOC(=O)C1=C(C)NC(C)=C(C(=O)OCC)C1C, the T/C [6] was 94 % of control, the T/C [7] was 95 % of control and the T/C (dose: 400.0 mg/kg/injection, schedule: Q01DX009 (ip), vehicle: saline) was 91 % of control.

With Nc1nc(-c2cccc(S(=O)(=O)O)c2)c([N+](=O)[O-])c(=O)[nH]1 the T/C (dose: 12.88 mg/kg/injection, schedule: Q01DX009 (ip), vehicle: saline) was 99 % of control, the T/C (dose: 25.75 mg/kg/injection, schedule: Q01DX009 (ip), vehicle: saline) was 96 % of control and the T/C (dose: 51.5 mg/kg/injection, schedule: Q01DX009 (ip), vehicle: saline) was 109 % of control.

C=C1C(=O)OC2/C=C(\CO)C(OC(C)=O)CC(O)/C(C)=C/C(OC(=O)C(C)CC)C12 (stereo not drawn) was tested, and the T/C (dose: 0.2 mg/kg/injection, schedule: Q01DX009 (ip), vehicle: Klucel (hydroxypropylcellulose) (HPC)) was 96 % of control, the T/C (dose: 0.39 mg/kg/injection, schedule: Q01DX009 (ip), vehicle: Klucel (hydroxypropylcellulose) (HPC)) was 103 % of control and the T/C (dose: 0.78 mg/kg/injection, schedule: Q01DX009 (ip), vehicle: Klucel (hydroxypropylcellulose) (HPC)) was 89 % of control and 103 % of control. The T/C (dose: 1.56 mg/kg/injection, schedule: Q01DX009 (ip), vehicle: Klucel (hydroxypropylcellulose) (HPC)) was 110 % of control and 100 % of control.

In the case of NC(=O)c1cc(Cl)nc2nc(Cl)nc(N)c12, the T/C [3] is reported as 92 % of control, the T/C [4] is reported as 101 % of control and the T/C [5] is reported as 86 % of control. The T/C (dose: 200.0 mg/kg/injection, schedule: Q01DX009 (ip), vehicle: saline with Tween-80) was 98 % of control and the T/C (dose: 400.0 mg/kg/injection, schedule: Q01DX009 (ip), vehicle: saline with Tween-80) was 106 % of control.

Nc1nc(/C=C(/O)c2ccccc2)c2ncn(C3OC(CO)C(O)C3O)c2n1 (stereo not drawn) was tested, and the T/C (dose: 12.5 mg/kg/injection, schedule: Q01DX009 (ip), vehicle: distilled water + Tween-80) was 103 % of control, the T/C (dose: 12.5 mg/kg/injection, schedule: Q01DX009 (ip), vehicle: saline) was 102 % of control and the T/C (dose: 25.0 mg/kg/injection, schedule: Q01DX009 (ip), vehicle: distilled water + Tween-80) was 101 % of control. For the same compound, the T/C (dose: 25.0 mg/kg/injection, schedule: Q01DX009 (ip), vehicle: saline) was 101 % of control, the T/C (dose: 50.0 mg/kg/injection, schedule: Q01DX009 (ip), vehicle: distilled water + Tween-80) was 95 % of control and the T/C (dose: 50.0 mg/kg/injection, schedule: Q01DX009 (ip), vehicle: saline) was 111 % of control. For the same compound, the T/C (dose: 100.0 mg/kg/injection, schedule: Q01DX009 (ip), vehicle: distilled water + Tween-80) was 101 % of control, the T/C [6] was 101 % of control and the T/C [7] was 103 % of control.

For CCN(CC)c1ccc2cc3ccc(=[N+](CC)CC)cc-3oc2c1, the T/C (dose: 2.5 mg/kg/injection, schedule: Q01DX009 (ip), vehicle: Klucel (hydroxypropylcellulose) (HPC)) was 104 % of control, the T/C (dose: 5.0 mg/kg/injection, schedule: Q01DX009 (ip), vehicle: Klucel (hydroxypropylcellulose) (HPC)) was 96 % of control and the T/C (dose: 10.0 mg/kg/injection, schedule: Q01DX009 (ip), vehicle: Klucel (hydroxypropylcellulose) (HPC)) was 88 % of control.
